One data set has as its system cell surface CFTR. Put plainly: Cell surface biotinylation in HT-29 cells, anti-CFTR immunoblot. It is filed as cell-based. Conditions: 50 μM, 24 hours. Here is the method:
The test compound was first solubilized in 100% DMSO as a 50 mM solution, and then diluted 1 to 100 in FBS as a 10× stock solution of 500 μM.
HT-29 cells were seeded at 2.0×10^6 cells in […] in 10% FBS DMEM overnight. The cell media was replaced with drug diluted 1 to 10 in DMEM (final concentration 50 μm in 10% FBS DMEM). 24 hours after drug addition, the cells were processed for cell surface biotinyaltion using Pierce Cell Surface Protein Isolation Kit (Thermo Scientific 89881). Briefly, cells were washed once with cold PBS and incubated with Sulfo-NHS-SS-Biotin for 30 minutes at 4° C. and reaction was stopped by adding Quenching solution. Cells were scraped and lysed and centrifuged at 10,000×g. Cell suspension were incubated with NeutrAvidin Agarose for 60 minutes at room temperature. Cell pellet (intracellular) were lysed in RIPA buffer. Protein bound to NeutrAvidin Agarose (cell surface) were eluted by SDS-PAGE sample buffer containing 50 mM DTT. Both cell surface and intracellular parts were analyzed by immunoblotting with anti-CFTR antibodies.
Background: A western blot detects proteins with antibodies after separation by electrophoresis.

Data set [1] concerns Pseudomona aeruginosa strain Xen05. Put plainly: In vitro bacterial clearance assay using human bronchial epithelial cells (16HBE). The data set is classed as cell-based. Conditions: 16HBE cells, 25 μM. As for the experimental part: In this assay, normal 16HBE cells were cultured and seeded at 2×10^5 cells per well using a 48-well plate. The resulting plates were incubated at 37° C. with 5% CO2 until 90% confluency. Cells were then treated with compound II-3 for 24 hours and then infected with Pseudomona aeruginosa strain Xen05 at a multiplicity of infection (MOI) of 1:50 (i.e. ratio of cells:bacteria) for 2 hours. Cells were then incubated with 500 μL of a mixture consisting non-permeable antibiotic (50 U/mL each of penicillin and streptomycin, mixed with 200 μg/mL gentamicin) for 3 hours to remove the extracellular bacteria. Afterwards, cells were lysed and a bacteria count was carried out to determine the remaining intracellular bacteria load.

A short description of data set [2]: Oral cannulated rat PK study (portal and jugular vein). It is filed as in vivo, Sprague Dawley rats. Conditions: for AUC(0-t) / Cmax: Sprague Dawley. From the text: The compounds of the invention were solubilized in a mixture of excipients consisting 40% Tween, 50% Peceol, 10% PEG400 and diluted with water to form a self-emulsifying aqueous mixture for oral administration to animals. For this study, Sprague Dawley rats that have been surgically implanted with indwelling jugular vein cannula (JVC) and portal vein cannula (PVC) were used (Agilux, Worcester, Mass.). This approach using double-cannulated rats allowed the measurement of the drug concentration that was delivered in the portal vein as well as the drug concentration that was present in the peripheral. For the PK study, serial blood collection was carried out at both the portal and jugular vein at the following time points: 10, 20, 40 min and 1, 2, 4 and 6 hours post dose. The bioanalytical portion of the PK study was carried out using an LC/MS/MS system (Agilent Model No: HPLC: 1200, MS: 6410) and analyzed with the appropriate software (WinNonlin Phoenix 64 6.3.0 395).

The subject of the next data set is LC3-II/LC3-I. Put plainly: In vivo autophagy activation in mouse lung tissues. The note with it: mice, 100 mg/kg po BID 3.5 days; p=0.04. As for the experimental part: In order to evaluate for in vivo autophagy activation, nave male C57BL/6 mice were dosed orally with compound II-3 (100 mg/kg, BID, 3.5 days). One hour after the last dose, lung tissues and plasma were collected to analyze for drug concentration and autophagy biomarkers. As discussed in earlier examples, the ratio of LC3-II to LC3-I was used as autophagy biomarker. When compound II-3 was dosed orally, the parent compound (i.e. II-3) and a major metabolite (i.e. compound I-1) was detected both in the plasma and lung tissues. One hour after the last dose, the plasma concentration of the parent compound II-3 was 143.0±52.35 ng/mL and the corresponding metabolite I-1 was 741.37±170.2 ng/mL. At this time point, the mouse lung tissue concentration of the parent compound II-3 was 536.48±24.01 ng/g. The metabolite I-1 was also detected in the lung tissues, at a concentration of 411.48±164.0 ng/g. Compound II-3 was able to induce autophagy at the given dose of 100 mg/kg and the 22% increase in the ratio of LC3-II to LC3-I in the isolated lung tissues was statistically significant (p=0.04, FIG. 12).

Like-named read-outs stand apart in the source and are kept apart here.

One may read the Cmax as the peak of the concentration-time curve. On to `CC/C=C\C/C=C\C/C=C\C/C=C\C/C=C\C/C=C\CCC(=O)NCCSSC(C)(C)CNC(=O)c1cccnc1` [II-3, N-(2-((2-((4Z,7Z,10Z,13Z,16Z,19Z)-docosa-4,7,10,13,16,19-hexaenamido)ethyl)disulfanyl)-2-methylpropyl)nicotinamide], for which, in the data set with cell surface CFTR, the “cell surface CFTR compared to vehicle control” value was “corresponding increase”. In addition, the “intracellular bacterial killing effect relative to positive control Cytochalasin-D” value in data set [1] is “comparable”. The “intracellular clearance of Pseudomona aeruginosa” value in data set [1] (24 hours pre-treatment) was “effective intracellular clearance”. The AUC(0-t) in data set [2] (jugular vein blood (peripheral), rat, oral, systemic circulation (jugular vein), read-out: peripheral AUClast) turned out to be 300 ± 103 ng·h/mL; in data set [2] (portal vein blood, rat, oral, portal vein, read-out: portal AUClast) it was 679 ± 226 ng·h/mL. Besides, the Cmax amounted to 102 ± 16.9 ng/mL in data set [2] (jugular vein blood (peripheral), rat, oral, systemic circulation (jugular vein), read-out: peripheral Cmax) and 331 ± 120 ng/mL in data set [2] (portal vein blood, rat, oral, portal vein, read-out: portal Cmax). Further, the “increase in the AUC, II-3 vs II-2” value in data set [2] (dosed orally to rats, Example 23) came out at 100 fold. The “peripheral Cmax of parent II-3 relative to parent II-2” value in data set [2] (rat, oral) is recorded as 100 fold. For the same compound, in data set [2] (rat, oral), the “resistance to first pass metabolism” value is recorded as “more resistant”. The compound further returned a peripheral AUClast in data set [2] (rat, oral, as restated in Example 23) of 102 ng·h/mL. The “oral exposure in the rat compared with II-2” value in data set [2] (summary of Example 18) is “better oral exposure”. In the data set on LC3-II/LC3-I, the “increase in the ratio of LC3-II to LC3-I in the isolated lung tissues” value came to 22%.

For the origin of these results see patent US10251845B2, “Fatty acid cysteamine conjugates and their use as activators of autophagy” (Catabasis Pharmaceuticals, Inc., priority 2014, dated 2019).
